We go through 4 compounds from US20140357487A1, “PLANTS HAVING INCREASED TOLERANCE TO HERBICIDES” (BASF SE, priority 2011, published 2014).

One assay has as its system Blepharisma HPPD. The assay can be described thus: HPPD activity assay, Blepharisma HPPD. The settings on record: normalized on Arabidopsis wild-type HPPD. It is filed as biochemical. On the procedure:
HPPD produces homogentisic acid and CO2 from 4-hydroxyphenylpyruvate (4-HPP) and O2. The activity assay for HPPD is based on the analysis of homogentisic acid by reversed phase HPLC.
The assay mixture can contain 150 mM potassium phosphate buffer pH 7.0, 50 mM L-ascorbic acid, 1 μM FeSO4 and 7 μg of purified enzyme in a total volume of 1 ml.
Inhibitors are dissolved in DMSO (dimethylsulfoxide) to a concentration of 20 mM or 0.5 mM, respectively. From this stock solution serial five-fold dilutions are prepared in DMSO, which are used in the assay. The respective inhibitor solution accounts for 1% of the assay volume. […]
Activities are normalized by setting the uninhibited enzyme activity to 100%. IC50 values are calculated using non-linear regression. […]
Inhibitors are dissolved in DMSO (dimethylsulfoxide) to a concentration of 0.5 mM. […] IC50 values are calculated using non-linear regression.
Using methods which are described in the above examples or well known in the art, purified, recombinant wildtype HPPD enzymes are characterized with respect to their kinetic properties and sensitivity towards HPPD inhibiting herbicides. Apparent michaelis constants (Km) and maximal reaction velocities (Vmax) are calculated by non-linear regression with the software GraphPad Prism 5 (GraphPad Software, La Jolla, USA) using a substrate inhibition model. […]

Assay [1] relates to transgenic corn plants, Arabidopsis HPPD, event SDM-71884. The assay can be described thus: Greenhouse testing of transgenic corn plants, Arabidopsis HPPD. In kind it is in vivo, Zea mays. The settings on record: corn SDM-71884, 5 days after herbicide treatment, average of 8 T1. The text has this:
(§1) Various methods for the production of stably transformed plants are well known in the art. Coumarone-derivative herbicide tolerant soybean (Glycine max) or corn (Zea mays) plants can be produced by a method described by Olhoft et al. (US patent 2009/0049567). Briefly, HPPD or HST encoding polynucleotides are cloned into a binary vector using standard cloning techniques as described by Sambrook et al. (Molecular cloning (2001) Cold Spring Harbor Laboratory Press). The final vector construct contains an HPPD or HST encoding sequence flanked by a promoter sequence (e.g. the ubiquitin promoter (PcUbi) sequence) and a terminator sequence (e.g. the nopaline synthase terminator (NOS) sequence) and a resistance marker gene cassette (e.g. AHAS) (FIG. 2). Optionally, the HPPD or HST gene can provide the means of selection. Agrobacterium-mediated transformation is used to introduce the DNA into soybean's axillary meristem cells at the primary node of seedling explants. After inoculation and co-cultivation with Agrobacteria, the explants are transferred to shoot induction medium without selection for one week. The explants are subsequently transferred to shoot induction medium with 1-3 μM imazapyr (Arsenal) for 3 weeks to select for transformed cells. Explants with healthy callus/shoot pads at the primary node are then transferred to shoot elongation medium containing 1-3 μM imazapyr until a shoot elongates or the explant dies. After regeneration, transformants are transplanted to soil in small pots, placed in growth chambers (16 hr day/8 hr night; 25° C. day/23° C. night; 65% relative humidity; 130-150 mE m−2 s−1) and subsequently tested for the presence of the T-DNA via Taqman analysis. After a few weeks, healthy, transgenic positive, single copy events are transplanted to larger pots and allowed to grow in the growth chamber. Transformation of corn plants is done by a method described by McElver and Singh (WO 2008/124495). Plant transformation vector constructs containing HPPD or HST sequences are introduced into maize immature embryos via Agrobacterium-mediated transformation. Transformed cells are selected in selection media supplemented with 0.5-1.5 μM imazethapyr for 3-4 weeks. Transgenic plantlets are regenerated on plant regeneration media and rooted afterwards. Transgenic plantlets are subjected to TaqMan analysis for the presence of the transgene before being transplanted to potting mixture and grown to maturity in greenhouse. Arabidopsis thaliana is transformed with HPPD or HST sequences by floral dip method as described by McElver and Singh (WO 2008/124495). Transgenic Arabidopsis plants are subjected to Tag Man analysis for analysis of the number of integration loci. Transformation of Oryza sativa (rice) are done by protoplast transformation as described by Peng et al. (U.S. Pat. No. 6,653,529)
(§2) Transgenic plants expressing heterologous HPPD or HST enzymes are tested for tolerance against coumarone-derivative herbicides in greenhouse experiments.
(§3) For post emergence treatment, the test plants are first grown to a height of 3 to 15 cm, depending on the plant habit, and only then treated with the herbicides. For this purpose, the test plants are either sown directly and grown in the same containers, or they are first grown separately and transplanted into the test containers a few days prior to treatment.
(§4) Depending on the species, the plants are kept at 10-25° C. or 20-35° C. The test period extends over 3 weeks. During this time, the plants are tended and their response to the individual treatments is evaluated. […] Tolerance to coumarone-derivative herbicides can also be assessed in Arabidopsis. In this case transgenic Arabidopsis thaliana plants are assayed for improved tolerance to coumarone-derivative herbicides in 48-well plates. Seeds are surface sterilized by stirring for 5 min in ethanol+water (70+30 by volume), rinsing one time with ethanol+water (70+30 by volume) and two times with a sterile, deionized water. […]

The subject of assay [2] is corn plants, wild type (transgene none). The assay can be described thus: Greenhouse testing of corn plants, wild type. In kind it is in vivo, Zea mays. As to conditions: 5 days after herbicide treatment.
Text: as §1, §2, §3, §4

Consider `CC1=NOC(c2c(Cl)ccc(C3=C(O)c4ncccc4C(C)(C)S3(=O)=O)c2Cl)C1` (centres unmarked) [Inhibitor 1, 7-[2,4-dichloro-3-(3-methyl-4,5-dihydroisoxazol-5-yl)phenyl]-5,5-dimethyl-6,6-dioxo-thiopyrano[4,3-b]pyridin-8-ol], for which, in the assay on Blepharisma HPPD, the “Normalized tolerance index TI” value came out at 12.4.

`COCCOCc1c(Cl)ccc(C2=C(O)c3ncccc3C(C)(C)S2(=O)=O)c1Cl` [Inhibitor 3, 7-[2,4-dichloro-3-(2-methoxyethoxymethyl)phenyl]-5,5-dimethyl-6,6-dioxo-thiopyrano[4,3-b]pyridin-8-ol]: the “Normalized tolerance index TI” value with Blepharisma HPPD is given as 0.5.

Regarding `CC1(C)c2cccnc2C(O)=C(c2ccc(Cl)nc2Cl)S1(=O)=O` [Inhibitor 2, 7-(2,6-dichloro-3-pyridyl)-5,5-dimethyl-6,6-dioxo-thiopyrano[4,3-b]pyridin-8-ol], the “Injury evaluation, scale of 1-100, bleaching phenotype” value in assay [1] (2.5 g/ha) is on record as 4; in assay [1] (10 g/ha), 13; in assay [1] (40 g/ha), 4; in assay [2] (2.5 g/ha), 20; in assay [2] (10 g/ha), 45; in assay [2] (40 g/ha), 33.

As for `Cc1c(C(=O)c2cnn(C)c2O)ccc(S(C)(=O)=O)c1C1=NOCC1` [Topramezone, reference compound], the “Injury evaluation, scale of 1-100, bleaching phenotype” value in assay [1] (6.25 g/ha) amounted to 0; in assay [1] (25 g/ha), 0; in assay [1] (100 g/ha), 1; in assay [2] (6.25 g/ha), 0; in assay [2] (25 g/ha), 0; in assay [2] (100 g/ha) it was 0.
